The text below walks through data of patent publication US8466195B2, “Methods and compositions for treating complications of diabetes and vascular diseases using flavones” (Salk Institute for Biological Studies, priority 2009, dated 2013).

Common to all, as to assay type: cell-based
The test system of data set [1] is cells treated with 20 μM iodoacetic acid (IAA). Kind of data set: In vitro ischemia (iodoacetic acid, MTT cell viability). As to conditions: 20 μM IAA 2 h, MTT 20 h later. The method, then:
Briefly, cells were seeded onto 96-well microtiter plates at a density of 5×10^3 cells per well. The next day, the medium was replaced with DMEM supplemented with 7.5% DFCS and the cells were treated with 20 μM iodoacetic acid (IAA) alone or in the presence of the different fisetin derivatives. After 2 h the medium in each well was aspirated and replaced with fresh medium without IAA but containing the fisetin derivatives. 20 h later, the medium in each well was aspirated and replaced with fresh medium containing 2.5 μg/ml MTT. After 4 h of incubation at 37° C., cells were solubilized with 100 μl of a solution containing 50% dimethylformamide and 20% SDS (pH 4.7). The absorbance at 570 nm was measured on the following day with a microplate reader (Molecular Devices). Results obtained from the MTT assay correlated directly with the extent of cell death as confirmed visually. Controls included compound alone to test for toxicity and compound with no cells to test for interference with the assay chemistry.

Another data set relates to HT22 cells. Description: Oxidative glutamate toxicity (MTT cell viability). The following applies: Mus musculus, HT-22; 5 mM glutamate, 24 hours, MTT; read-out: EC50 oxid. glut. tox. The method, then:
Cell viability was determined by a modified version of 3-(4,5-dimethylthiazol-2-yl)-2,5-diphenyl tetrazolium bromide (MTT) assay based on the standard procedure (Hansen M B et al. J. Immunol. Methods 119:203-210, 1989). Briefly, cells were seeded onto 96-well microtiter plates at a density of 5×10^3 cells per well. The next day, the medium was replaced with DMEM supplemented with 7.5% DFCS and the cells were treated with the different fisetin derivatives alone or in the presence of 5 mM glutamate. Twenty four hours later, the medium in each well was aspirated and replaced with fresh medium containing 2.5 μg/ml MTT. After 4 hours of incubation at 37° C., cells were solubilized with 100 μA of a solution containing 50% dimethylformamide and 20% SDS (pH 4.7). The absorbance at 570 nm was measured on the following day with a microplate reader (Molecular Devices). Results obtained from the MTT assay correlated directly with the extent of cell death as confirmed visually. Controls employing wells without cells were used to determine the effects of the agents upon the assay chemistry.
As shown in panel (A) of FIG. 3, HT22 cells were untreated (ct) or treated with 10 μM fisetin (fis) in the absence of presence of 5 mM glutamate for 24 hr and GSH was measured enzymatically and normalized to protein. As shown in panel (B) of FIG. 3, HT22 cells in 96-well plates were treated with 5 mM glutamate and the indicated concentrations of fisetin. MTT reduction was measured after 24 hr.

The test system of another data set is HT-22 nerve cells. Kind of data set: HT-22 nerve cells exposed to glutamate: MG adducts and viability. The method, then: HT-22 nerve cells were exposed to 0.5 mM glutamate and Glo-1 expression monitored at 8 and 24 hrs. In panel (B) of FIG. 2, Fisetin is shown to prevent both cell death and protein glycation. HT-22 cells were exposed to 5 mM glutamate in the presence or absence of 2 μM fisetin. MG adducts were determined by Western blotting 8 hrs after glutamate exposure and viability after 24 hrs. Actin is at the bottom of the blot. In panel (C) of FIG. 2, the Glo-1 inhibitor s-p-bromobenzylglutathione […] is shown to potentiate cell death. HT-22 cells were exposed to 1 mM glutamate plus or minus 10 or 20 μM BBGD.

pEC50: −log10 of the molar value. A value given as a limit tells only on which side of the number the result lay.

As for `CCOc1ccc(-c2oc3cc(OC)c(OC)cc3c(=O)c2O)cc1OCC`, the pEC50 in data set [1] was less than 6.00; with HT22 cells, more than 5.00.
As to `CCOc1ccc(-c2cc(=O)c3cc(C)c(C)cc3o2)cc1OCC`, in data set [1], the pEC50 is less than 6.00.
On to `COc1cc2oc(-c3ccc(O)c(O)c3)cc(=O)c2cc1OC`, for which the pEC50 is more than 6.00 in data set [1] and more than 5.00 with HT22 cells.
On to `COc1cccc(-c2oc3cc(OC)c(OC)cc3c(=O)c2O)c1`, for which the pEC50 in data set [1] is 6.00; with HT22 cells it was more than 5.00.
`CCOc1ccc(-c2oc3cc(C)c(C)cc3c(=O)c2O)cc1OCC`: the negative-log EC50 (pEC50) in data set [1] was more than 6.00; in the data set with HT22 cells, more than 5.00.
In the same order, the values of `COc1cc2oc(-c3ccc(O)c(O)c3)c(O)c(=O)c2cc1OC` are less than 6.00 and more than 5.00.
On to `Cc1cc2oc(-c3ccc(O)c(O)c3)c(O)c(=O)c2cc1C`, for which the pEC50 in data set [1] was more than 6.00; in the data set with HT22 cells, more than 5.00.
In the same order, the values of `Cc1cc2oc(-c3ccc(O)c(O)c3)cc(=O)c2cc1C` are more than 6.00 and more than 5.00.
`O=c1cc(-c2ccc(O)c(O)c2)oc2cc(O)c(O)cc12`: the pEC50 is less than 6.00 in data set [1] and less than 5.00 in the data set on HT22 cells.
On the same counts, the results for `O=c1c(O)c(-c2ccc(O)c(O)c2)oc2cc(O)c(O)cc12` are less than 6.00 and more than 5.00.
For the compound `N[C@@H](CCC(=O)N[C@@H](CSCc1ccc(Br)cc1)C(=O)NCC(=O)O)C(=O)O` [BBGD, s-p-bromobenzylglutathione, reference compound], in the data set with HT-22 nerve cells (20 μM BBGD, no glutamate), the “toxicity in the absence of glutamate” value is given as “only mildly toxic”. In the data set with HT-22 nerve cells (1 mM glutamate plus 10 or 20 μM BBGD), the “cell death in the presence of glutamate” value is “greatly potentiates cell death”.
`O=c1c(O)c(-c2ccc(O)c(O)c2)oc2cc(O)ccc12` [drawing 10]: the pEC50 in data set [1] was less than 6.00; with HT22 cells, more than 5.00.
